# Assay results from ChEMBL document CHEMBL4417636, “Small molecule inhibitors of pendrin ion exchange and pharmaceutical compositions” (2017).
# Active and inactive are the calls of the source. The calls are words filed in the database; no cut-off is given here.
# What was measured:
# [1] = target: T1, Band 3 anion transport protein (Mus musculus) (UniProt P04919); test: Inhibition of mouse Slc4a1 expressed in COS7 co-expressing EYFP-HIF assessed as effect on SCN(-) gradient at 25 uM by YFP-based fluorescence quenching assay
# T1 sequence (whole entry): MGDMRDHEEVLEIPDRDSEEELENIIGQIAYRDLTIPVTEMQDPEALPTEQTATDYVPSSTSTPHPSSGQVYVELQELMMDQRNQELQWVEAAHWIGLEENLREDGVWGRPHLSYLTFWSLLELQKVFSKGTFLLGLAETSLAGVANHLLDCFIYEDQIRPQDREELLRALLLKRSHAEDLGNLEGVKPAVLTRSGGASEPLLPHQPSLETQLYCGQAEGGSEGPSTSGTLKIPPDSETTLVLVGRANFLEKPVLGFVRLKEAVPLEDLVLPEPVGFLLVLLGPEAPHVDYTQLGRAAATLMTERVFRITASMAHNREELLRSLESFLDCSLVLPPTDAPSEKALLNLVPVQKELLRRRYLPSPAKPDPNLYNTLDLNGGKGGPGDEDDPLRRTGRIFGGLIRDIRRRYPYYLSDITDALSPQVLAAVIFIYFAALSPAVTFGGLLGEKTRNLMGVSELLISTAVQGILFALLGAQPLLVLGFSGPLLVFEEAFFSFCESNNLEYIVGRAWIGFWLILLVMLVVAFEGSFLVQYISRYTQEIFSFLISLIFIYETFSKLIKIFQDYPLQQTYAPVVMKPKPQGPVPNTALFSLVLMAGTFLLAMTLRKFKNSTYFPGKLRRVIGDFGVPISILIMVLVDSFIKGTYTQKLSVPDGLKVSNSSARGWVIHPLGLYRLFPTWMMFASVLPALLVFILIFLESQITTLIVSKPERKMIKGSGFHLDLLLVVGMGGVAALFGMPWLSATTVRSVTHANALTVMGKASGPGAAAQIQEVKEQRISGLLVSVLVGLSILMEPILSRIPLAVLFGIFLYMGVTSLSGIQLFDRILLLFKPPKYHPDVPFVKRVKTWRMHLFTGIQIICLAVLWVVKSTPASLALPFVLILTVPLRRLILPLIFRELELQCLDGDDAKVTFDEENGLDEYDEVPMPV
# [2] = target: T2, Solute carrier family 12 member 2 (Homo sapiens) (UniProt P55011); test: Inhibition of human NKCC1 expressed in COS7 co-expressing EYFP-HIF assessed as effect on I(-) gradient at 25 uM by YFP-based fluorescence quenching assay
# T2 sequence (whole entry): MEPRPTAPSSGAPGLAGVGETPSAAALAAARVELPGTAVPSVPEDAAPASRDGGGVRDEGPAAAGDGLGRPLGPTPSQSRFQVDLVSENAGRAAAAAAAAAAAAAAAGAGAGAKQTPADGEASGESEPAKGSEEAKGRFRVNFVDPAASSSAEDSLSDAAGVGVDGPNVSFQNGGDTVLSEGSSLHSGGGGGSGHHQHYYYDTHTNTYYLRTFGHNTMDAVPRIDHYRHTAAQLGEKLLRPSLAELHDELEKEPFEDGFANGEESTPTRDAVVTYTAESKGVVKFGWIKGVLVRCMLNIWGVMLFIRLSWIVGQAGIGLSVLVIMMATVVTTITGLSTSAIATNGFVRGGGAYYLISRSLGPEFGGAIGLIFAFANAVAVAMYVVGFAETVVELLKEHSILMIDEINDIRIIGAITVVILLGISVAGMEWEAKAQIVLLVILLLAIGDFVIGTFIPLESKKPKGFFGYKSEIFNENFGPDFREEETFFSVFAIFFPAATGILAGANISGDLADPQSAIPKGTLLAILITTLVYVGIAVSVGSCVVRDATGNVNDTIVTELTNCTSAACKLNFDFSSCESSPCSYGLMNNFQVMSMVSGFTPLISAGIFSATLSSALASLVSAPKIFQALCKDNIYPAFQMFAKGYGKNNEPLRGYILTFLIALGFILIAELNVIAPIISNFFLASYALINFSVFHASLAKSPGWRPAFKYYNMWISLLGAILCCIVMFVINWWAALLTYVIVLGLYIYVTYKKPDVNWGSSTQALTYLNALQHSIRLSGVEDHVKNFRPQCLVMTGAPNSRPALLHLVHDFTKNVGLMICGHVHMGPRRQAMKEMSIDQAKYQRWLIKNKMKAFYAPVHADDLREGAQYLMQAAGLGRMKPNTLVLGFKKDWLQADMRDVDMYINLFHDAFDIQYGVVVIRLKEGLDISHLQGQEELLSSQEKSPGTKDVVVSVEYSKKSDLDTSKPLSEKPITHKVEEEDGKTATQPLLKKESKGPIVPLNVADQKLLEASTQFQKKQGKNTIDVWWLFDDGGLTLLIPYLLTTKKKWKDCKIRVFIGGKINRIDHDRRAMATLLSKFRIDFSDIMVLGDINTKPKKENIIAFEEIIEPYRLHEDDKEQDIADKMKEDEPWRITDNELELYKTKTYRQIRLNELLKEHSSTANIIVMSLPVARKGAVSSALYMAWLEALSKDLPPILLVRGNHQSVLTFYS
# [3] = system: Mus musculus; test: Potentiation of 20 mg/kg, ip furosemide-induced acute diuretic action in CD1 mouse assessed as increase in urinary Na+ excretion at 50 mg/kg, ip measured at 3 hrs relative to control; format: functional, organism-based
# [4] = species on record: Homo sapiens; test: Effect on gluconate gradient-induced Cl/HC03- efflux in NHBE cells at 25 uM; format: functional, cell-based
# [5] = species on record: Homo sapiens; test: Effect on airway surface liquid depth in human CFBE at 25 uM by rhodamine B-dextran fluorescence based confocal microscopy; format: functional
# [6] = system: Mus musculus; test: Potentiation of 20 mg/kg, ip bid for 8 days furosemide-induced chronic diuretic action in CD1 mouse assessed as increase in urine volume at 10 mg/kg, ip measured at 3 hrs relative to control; format: functional
SMILES,inhibition [1],inhibition [2],Activity [3],Activity [4],Activity [5],Activity [6] [%]
Cc1n[nH]c(-c2cc(S(=O)(=O)NC3CCCc4ccccc43)c(C)s2)c1C (stereo unspecified),inactive,inactive,Active,–,–,–
Cn1nc(COc2cccc(F)c2)c2c1CCN(C(=O)Nc1ccc(Cl)cc1)C2,–,–,–,inactive,inactive,60
